In patent US20110263694A1, “Use of Xanthone Derivatives as a Medicament for Cancer” (MUSEUM NATIONAL D'HISTOIRE NATURELLE, priority 2008, published 2011):

Key:
purified B-lymphocytes = assay: MTT cytotoxicity on purified normal B-lymphocytes; type: cell-based, human; settings: 5 or 10 μg/ml, 48 hours; FIG. 5C
Experimental: (§1) FIG. 5: The effect of the compounds M1, M2, M4, M5 and M6 on the viability and apoptosis of normal lymphocytes was evaluated as indicated in the Examples section. A/ PBMC isolated from the blood of normal volunteers were incubated at 2×10^6/ml for 48 hours in the presence of medium alone (grey bar) or containing 1 μg/ml (black bar) or 10 μg/ml (slashed bars) of the different compounds. At the end of the incubation time, the percentage of enrichment in cytoplasmic nucleosomes was evaluated as indicated in the Examples Section. PBMC (A) and purified B lymphocytes (C) from normal blood donors were incubated for 48 hours with medium alone (grey bar) or containing 5 μg/ml (black bar) or 10 μg/ml (slashed bar) of the selected reagents M1, M2, M4 and M6. Viability was estimated after labelling the cells with a 5 hours pulse of MTT and determination of the absorbance at 540 nm as indicated in the Examples Section.
(§2) Leukemia cells from B-CLL patients were adjusted at 2×10^6/ml and 200 μl aliquots were distributed in triplicate samples in the wells of a 96-well microtitration plate and cultured in the absence or presence of the various reagents. After 18 hours of incubation at 37° C. in a humidified atmosphere containing 5% CO2, 20 μl of a 5 mg/ml solution of MTT (Sigma, St Louis, Mo., USA) were added to the wells for an additional 6 hours incubation. The microplates were centrifuged at 400×g for 20 min, the supernatants carefully discarded and 200 μl of DMSO were added to the wells to dissolve the precipitates of formazan. The optical density was measured with the use of a microplate reader (Victor-2, Wallac, Perkin Elmer, Norwalk, Mont., USA) at the wavelength of 540 nm.
(§3) Blood samples from healthy donors were obtained from the Institut Francais du Sang as residues from platelet preparations. The healthy blood donors were under 60 years old, according to the French legislation, and therefore they could not be exactly age-matched with the B-CLL patients. PBMC were prepared as described elsewhere (Zhao et al, Blood 1998; 92: 1031-1043) and normal B-lymphocytes were purified by positive selection on anti-CD19-coated magnetic beads according to the specifications of the manufacturer (Dynal, Oslo, Norway) (Kern et al, Blood 2004; 103: 679-688). Their purity usually ranged from 92% to 95%, as estimated by labelling with an anti-CD20-phycoerythrin (PE) antibody, and monocyte contamination never exceeded 2% (Kern et al, Blood 2004; 103: 679-688).

B-CLL cells = assay: MTT viability of freshly isolated B-CLL cells; type: cell-based, human; settings: FIG. 3, 6 B-CLL patients
Experimental: FIG. 3: The effect of the molecules M1, M2, M4, M5 and M6 on the viability of B-CLL cells was determined. Tumour cells freshly isolated from B-CLL patients were suspended at 2×10^6/ml in complete RPMI-1640 medium and incubated for 48 hours in the presence or absence of either 1 μg/ml (black bars) or 10 μg/ml (gray bars) of the various molecules. MTT was incorporated into the cells during the last 5 hours of incubation and the viability was measured by recording the formation of the formazan precipitate as described in the Examples section. The results are expressed as the percentage of the viability of the treated cells in comparison with control cells incubated with medium alone taken as 100% and represent the mean±SE of 6 B-CLL patients.
Blood samples from B-CLL patients were obtained from the Haematology Department of Hôtel-Dieu hospital (Paris, France) after written informed consent, in accordance with the rules and tenets of the revised Helsinki protocol. Diagnosis was established according to standard clinical and international CLL workshop criteria, including lymphocyte morphology and co-expression of CD5, CD20 and CD23 antigens. A total of 12 patients (6 men and 6 women) with an age ranging 50-84 years (mean±SD: 68±8.8 years) were selected and the time since diagnosis varied between 0 (newly diagnosed patients) and 10 years. The patients were randomly chosen for each type of experiment inasmuch as CD38 and ZAP-70 expression, cytogenetic analysis and mutational VH status were only available for a fraction of them, thus hampering a risk-group analysis. The leukemia B-cells were isolated with purity greater than 96%, as previously described (Zhao et al, Blood 1998; 92: 1031-1043). All the experiments were performed with freshly purified B-CLL leukemia cells.
M1, M2, M4, M5 and M6 were thus tested for their possible action on the viability of these leukemia cells by the MTT assay that relies on the integrity of the mitochondrial succinyl dehydrogenase.
as §2

[1] = tested on: SK-OV3 ovarian cancer cells; settings: Lee et al 2005, read-out: IC50 cytotoxic activity; cited from earlier work
ESKOL cells [2] = assay: Enrichment in cytoplasmic nucleosomes (DNA cleavage) in ESKOL cells; type: cell-based, human; settings: 2 days, 1 or 10 μg/ml; FIG. 2B
Experimental: B/ The percentage of enrichment in cytoplasmic nucleosomes was evaluated simultaneously as a surrogate for DNA cleavage.
The detection of cytoplasmic histone-associated DNA fragments (mono- and oligonucleosomes) was performed in cell lysates from aliquots of 20,000 cells using an ELISA with anti-histone and anti-DNA fragment mAbs (Cell Death Detection ELISA^PLUS, Roche Diagnostics, Indianapolis, Ind., USA) as previously described (Billard et al, Leuk Lymphoma 2002; 43: 1991-2002).

ESKOL cells [3] = assay: Antiproliferative effect on ESKOL cells (viable cell count, Coulter counter); type: cell-based, human; settings: 1 and 10 μg/ml; 1, 2 or 4 days; FIGS. 1A and 1B
Experimental: FIG. 1: The antiproliferative effects of M1, M2, M4, M5 and M6 were compared as indicated in the Examples Section on ESKOL cells. ESKOL cells were seeded at 2×10^5 cells/ml in the wells of micro-titration plate in the presence or absence (medium alone: ◯, DMSO: […]) of M1 (□), M2 (▪), M4 (▴), M5 ([…]), M6 (◯) at the concentrations of 1 μg/ml (A) and 10 μg/ml (B). After various times of incubation (1, 2 or 4 days), aliquots were harvested and the concentration of viable cells was measured in a Coulter counter as indicated in the examples.
The anti-proliferative effects of the isolated molecules were investigated on the ESKOL cell line derived from a hairy cell leukemia patient, a chronic B cell malignancy (Harvey et al, Leuk Res. 1991; 15: 733-744).
Cells were routinely cultured at seeding densities of 2×10^6 cells/ml in RPMI-1640 medium supplemented with 2 mM glutamine, 1 mM sodium pyruvate, 100 IU/ml penicillin, 100 μg/ml streptomycin and 10% FCS (PAA Laboratories, Pasching, Austria) and cultures were performed at 37° C. in an humidified atmosphere containing 5% CO2.
For the assay, ESKOL cells were seeded at 2×10^5/ml in 24-well microtitration plate, together with two concentrations (1 and 10 μg/ml) of the […] xanthones or 1% DMSO (solvent) as control. After 1, 2 and 4 days of culture, aliquots of cells were collected and the cell concentration was evaluated by counting the number of viable cells with a Coulter Multisizer counter Z2 (Coultronics, Margency, France) allowing the discrimination between viable and dead cells and debris according to size distribution.
Cells were cultured in duplicates or triplicates and each experiment repeated 2 to 5 times.

ESKOL cells [4] = assay: Annexin V-FITC labelling of ESKOL cells (phosphatidylserine externalisation, flow cytometry); type: cell-based, human; settings: 1 μg/ml, 24 hours; for % Annexin V+ cells: ESKOL cells, after subtraction of control value
Source text: The induction of apoptosis was further confirmed by assessing the percentage of cells expressing phosphatidylserine at the outer leaflet of the plasma membrane by flow cytometry.
The phosphatidylserine (PS) externalisation, a membrane marker of cells undergoing apoptosis, was quantified by specific binding of FITC-conjugated annexin V (Bender Medsystems, Vienna, Austria), with or without simultaneous labelling with propidium iodide (PI), according to a modification of the technique described by Koopman (Koopman et al, Blood 1994; 84:1415-1420). The percentages of annexin V-FITC positive and PI negative cells were determined by cytometry on an EPICS Altra flow cytometer (Beckman Coulter).
The ESKOL cells (10^6/ml) were cultured in the absence (C=control) or the presence of 1 μg/ml of the various Allanblackia molecules. After 24 hours of incubation, the percentage of cells labelled with Annexin V-FITC was measured by flow cytometry as previously indicated. Results are expressed after subtraction of the value for control unstimulated cells. P values were estimated by Kolmogorov-Smirnov analysis using the Statview software.

normal PBMC = assay: MTT cytotoxicity on normal PBMC; type: cell-based, human; settings: 5 or 10 μg/ml, 48 hours; FIG. 5B
Experimental: as §1, §2, §3

[5] = tested on: human A549 lung cancer cells; settings: Lee et al 2005, read-out: IC50 cytotoxic activity; cited from earlier work
Plasmodium = settings: literature; cited from earlier work
[6] = tested on: human A375 melanoma cell line; settings: Azebaze et al 2006; cited from earlier work
histamine H1 receptor = settings: Chairungsrilerd et al 1996; cited from earlier work
[7] = tested on: human colon cancer DLD-1 cells; settings: Matsumoto 2005; cited from earlier work
[8] = tested on: human promyelocytic leukemia HL-60 cell line; settings: Matsumoto et al 2003; cited from earlier work

## C=CC(C)(C)c1c2c(c(O)c3c(=O)c4ccc(O)c(O)c4oc13)C=CC(C)(C)O2 [M6, Macluraxanthone]
Purified B-lymphocytes
  cytotoxic effect on purified normal B-lymphocytes (MTT): somewhat sensitive
B-CLL cells; 1 μg/ml
  viability of B-CLL cells (MTT): no significant effect
B-CLL cells; 10 μg/ml
  viability of B-CLL cells (MTT): marked reduction in the viability
[1]
  IC50: 4.24 µM
ESKOL cells [2]
  DNA breakdown (enrichment in cytoplasmic nucleosomes) in ESKOL cells: potent inducers of DNA breakdown
ESKOL cells [3]
  proliferation of ESKOL cells: markedly and dose-dependently slowed down the proliferation
ESKOL cells [4]
  increase in the percentage of Annexin V positive ESKOL cells (in words): significant increase
  % Annexin V+ cells: 36.5%
Normal PBMC
  cytotoxic effect on normal PBMC (MTT): somewhat sensitive
[5]
  IC50: 2.88 µM

## CC(C)=CCc1c(O)cc2oc3c(c(=O)c2c1O)C(CC=C(C)C)(CC=C(C)C)C(=O)C(O)=C3 [M4, allanxanthone C]
Purified B-lymphocytes
  cytotoxic effect on purified normal B-lymphocytes (MTT): no toxic effect
B-CLL cells; 1 μg/ml
  viability of B-CLL cells (MTT): no significant effect
B-CLL cells; 10 μg/ml
  viability of B-CLL cells (MTT): marked reduction in the viability
ESKOL cells [2]
  DNA breakdown (enrichment in cytoplasmic nucleosomes) in ESKOL cells: potent inducers of DNA breakdown
ESKOL cells [3]
  proliferation of ESKOL cells: markedly and dose-dependently slowed down the proliferation
ESKOL cells [4]
  increase in the percentage of Annexin V positive ESKOL cells (in words): to a lesser degree
  % Annexin V+ cells: 10.2%
Normal PBMC
  cytotoxic effect on normal PBMC (MTT): no toxic effect

## COc1ccc2oc3cc(O)c(CC=C(C)C)c(O)c3c(=O)c2c1 [M1, 1,3 dihydroxy-7-methoxy-2(3-methylbut-2enyl)xanthone]
Purified B-lymphocytes
  cytotoxic effect on purified normal B-lymphocytes (MTT): no toxic effect
B-CLL cells; 1 μg/ml
  viability of B-CLL cells (MTT): no significant effect
B-CLL cells; 10 μg/ml
  viability of B-CLL cells (MTT): marked reduction in the viability
ESKOL cells [3]
  proliferation of ESKOL cells: markedly and dose-dependently slowed down the proliferation
ESKOL cells [4]
  % Annexin V+ cells: 5.6%
Normal PBMC
  cytotoxic effect on normal PBMC (MTT): no toxic effect

## allanxanthone C [M4]
Plasmodium
  antiplasmodial activity: displays antiplasmodial activity
[6]
  cytotoxicity on A375 cell line: cytotoxicity

## CC(C)=CCC/C(C)=C/Cc1c(O)c(O)cc2oc3cc(O)c(CC=C(C)C)c(O)c3c(=O)c12 [M5, norcowanin]
Plasmodium
  antiplasmodial activity: antiplasmodial activity
B-CLL cells; 1 μg/ml
  viability of B-CLL cells (MTT): no significant effect
B-CLL cells; 10 μg/ml
  viability of B-CLL cells (MTT): marked reduction in the viability
[6]
  cytotoxicity on A375 cell line: weak cytotoxicity
ESKOL cells [2]
  DNA breakdown (enrichment in cytoplasmic nucleosomes) in ESKOL cells: potent inducers of DNA breakdown
ESKOL cells [3]
  proliferation of ESKOL cells: markedly and dose-dependently slowed down the proliferation
ESKOL cells [4]
  increase in the percentage of Annexin V positive ESKOL cells (in words): to a lesser degree
  % Annexin V+ cells: 9.4%

## COc1c(O)cc2oc3cc(O)c(CC=C(C)C)c(O)c3c(=O)c2c1CC=C(C)C [M2, α-mangostin]
Plasmodium
  antiplasmodial activity: displays antiplasmodial activity
Purified B-lymphocytes
  cytotoxic effect on purified normal B-lymphocytes (MTT): somewhat sensitive
Histamine H1 receptor
  histamine H1 receptor antagonism: histamine H1 receptor antagonist
B-CLL cells; 1 μg/ml
  viability of B-CLL cells (MTT): no significant effect
B-CLL cells; 10 μg/ml
  viability of B-CLL cells (MTT): marked reduction in the viability
[7]
  cell-cycle arrest and apoptosis in DLD-1 cells: induces cell-cycle arrest and apoptosis
ESKOL cells [2]
  DNA breakdown (enrichment in cytoplasmic nucleosomes) in ESKOL cells: potent inducers of DNA breakdown
ESKOL cells [3]
  proliferation of ESKOL cells: markedly and dose-dependently slowed down the proliferation
ESKOL cells [4]
  increase in the percentage of Annexin V positive ESKOL cells (in words): significant increase
  % Annexin V+ cells: 15.0%
[8]
  apoptosis induction in HL-60 cell line: induces apoptosis
Normal PBMC
  cytotoxic effect on normal PBMC (MTT): somewhat sensitive
